Active and inactive are the calls of the source. No cut-off for these calls is given here.
Tests used:
[1] = Solubility of the compound in water measured after 24 hrs by HPLC analysis; type: physicochemical
[2] = Ratio of drug level in brain hippocampus to plasma in ICR mouse at 200 mg/kg administered through oral gavage; type: ADME, organism-based; conditions: read-out: logBB (converted)
[3] = Drug uptake in ICR mouse brain hippocampus at 200 mg/kg administered through oral gavage measured after 1 hr by LC-MS/MS analysis; type: ADME, organism-based; conditions: read-out: Drug uptake
[4] = Ratio of drug level in brain cortex to plasma in ICR mouse at 200 mg/kg administered through oral gavage; type: ADME, organism-based; conditions: read-out: logBB (converted)
[5] = Drug uptake in ICR mouse brain cortex at 200 mg/kg administered through oral gavage measured after 1 hr by LC-MS/MS analysis; type: ADME, organism-based; conditions: read-out: Drug uptake
[6] = Plasma concentration in ICR mouse at 200 mg/kg administered through oral gavage measured after 1 hr by LC-MS/MS analysis; type: ADME, organism-based
[7] = Inhibition of cupric ion-induced aggregation of amyloid beta (1 to 42) (unknown origin) at 50 uM measured after 24 hrs by dot blot assay
[8] = Antioxidant activity assessed as inhibition of Cu2+-induced CCA […] to 7-hydroxy-CCA by measuring decrease in hydroxyl radical production at 10 uM in presence of ascorbate by fluorescence assay
[9] = Antioxidant activity assessed as trolox equivalent of AAPH radical scavenging activity preincubated for 10 mins followed by AAPH challenge measured every min for 180 mins by ORAC-FL assay; type: functional
Rattus norvegicus [10] = species on record: Rattus norvegicus; test: Inhibition of rat serum BuChE at 40 uM using butyrylthiocholine as substrate measured after 20 mins by Ellman's method relative to control
[11] = Inhibition of cupric ion-induced aggregation of amyloid beta (1 to 42) (unknown origin) at compound:amyloid beta (1 to 42):Cu2+ ratio of 2:1:1 measured after 24 hrs by TEM analysis
Mus musculus [12] = test: Cognitive enhancing effect against scopolamine-induced memory deficit in ICR mouse assessed as reduction in number of errors at 200 mg/kg, po administered through gavage 1 hr before scopolamine-challenge measured after 20 mins by passageway water maze test; type: functional, organism-based
Rattus norvegicus [13] = species on record: Rattus norvegicus; test: Selectivity index, ratio of IC50 for rat serum BuChE to IC50 for rat cortex AChE
Mus musculus [14] = test: Cognitive enhancing effect against scopolamine-induced memory deficit in ICR mouse assessed as reduction in escape latency at 200 mg/kg, po administered through gavage 1 hr before scopolamine-challenge measured after 20 mins by passageway water maze test; type: functional, organism-based
SH-SY5Y = test: Neuroprotective activity in human SH-SY5Y cells assessed as protection against Cu2+ induced amyloid-beta (1 to 42) neurotoxicity by measuring increase in cell viability at compound:amyloid-beta (1 to 42):Cu2+ ratio of 2:1:1 after 24 hrs by MTT assay relative to control; type: functional, cell-based

With `CCCN(CCC)Cc1cn(-c2cc(NC(=S)NCC)ncn2)cn1.Cl` as the molecule, how does the solubility at 24 h [1] read?
Its solubility at 24 h is 3380 µg/mL.

What about the Kp [2] of the same molecule?
The Kp was 0.324.

And the concentration at 1 h [3]?
The concentration at 1 h was 579 ng/g.

And the Kp [4]?
The Kp was 0.141.

And the concentration at 1 h [5]?
Its concentration at 1 h is 296 ng/g.

And the concentration at 1 h [6]?
Its concentration at 1 h is 1740 ng/mL.

Which inhibition [7] does the source give for `CCCN(CCC)Cc1cn(-c2cc(NC(=S)NCC)ncn2)cn1` here?
The inhibition was “Active”.

And the inhibition [8]?
Its inhibition is “Active”.

What about the Activity (umolequiv/umol) [9] of the same molecule?
The Activity (umolequiv/umol) was 1.28.

What about the inhibition (Rattus norvegicus [10]) of the same molecule?
Its inhibition is 32.8%.

What about the inhibition [11] of the same molecule?
Its inhibition is “Active”.

What about the Activity (Mus musculus [12]) of the same molecule?
Its Activity is “Active”.

What about the Ratio IC50 (Rattus norvegicus [13]) of the same molecule?
The Ratio IC50 was over 196.

And the Activity (Mus musculus [14])?
Its Activity is “Active”.

What about the Activity (SH-SY5Y) of the same molecule?
The Activity was “Active”.
